The data set is described as follows: Natural pH of aqueous solution. The format is physicochemical.

On to `O=C(O)CNCP(=O)(O)O` [N-phosphonomethylglycine], for which the “natural pH of aqueous solution” value is given as ~4.7.

For the origin of these results see patent publication US5430005A, “Herbicidal compositions” (Monsanto Company, priority 1991, dated 1995).
